From patent US7939322B2, “Cells expressing pluripotency markers and expressing markers characteristic of the definitive endoderm” (Centocor Ortho Biotech Inc., priority 2008, dated 2011)

Key:
EXPRES 01 cells = test: CXCR4 expression by FACS after DE differentiation; format: cell-based, human; conditions: passage 19, day 4; 100 nM GSK-3B inhibitor IX with 0.5% FBS, 20 ng/ml WNT-3a, 100 ng/ml activin-A (about 17% in earlier protocol without inhibitor)
Protocol: (§1) Adhered human embryonic stem cells were removed from culture plates by a five-minute incubation with TrypLE™ Express solution (Invitrogen, CA). Released cells were resuspended in human embryonic stem cell culture medium and recovered by centrifugation, followed by washing and resuspending the cells in a staining buffer consisting of 2% BSA, 0.05% sodium azide in PBS (Sigma, Mo.). As appropriate, the cells were Fc-receptor blocked for 15 minutes using a 0.1% γ-globulin (Sigma) solution. […] Controls included appropriate isotype matched antibodies, unstained cells, and cells stained only with secondary conjugated antibody. All incubations with antibodies were performed for 30 mins at 4° C., after which the cells were washed with the staining buffer. Samples that were stained with unconjugated primary antibodies were incubated for an additional 30 mins at 4° C. with secondary conjugated PE or -APC labeled antibodies. See Table IB for a list of secondary antibodies used. Washed cells were pelleted and resuspended in the staining buffer, and the cell surface molecules were identified using a FACS Array (BD Biosciences) instrument, collecting at least 10,000 events. […]

EXPRES 02 cells = test: CXCR4 expression by FACS after DE differentiation; format: cell-based, human; conditions: passage 14, day 4; 100 nM GSK-3B inhibitor IX with 0.5% FBS, 20 ng/ml WNT-3a, 100 ng/ml activin-A (about 40% in earlier protocol without inhibitor)
Protocol: as §1

[1] = system: human embryonic stem cell line H9; test: Attachment of single human embryonic stem cells on uncoated TCPS with or without ROCK inhibitor; format: cell-based; conditions: 10 μm ROCK inhibitor, 24 hrs after seeding on TCPS, hypoxic (approximately 3% O2), compared to cultures without ROCK inhibitor
Protocol: Cells from the human embryonic stem cell line H9 at passage 35 lines were cultured under hypoxic conditions (approximately 3% O2) for at least three passages. The cells were cultured in MEF-CM supplemented with 8 ng/ml of bFGF and plated on MATRIGEL coated plates according to Example 1. At approximately 60% confluency, the cultures were exposed to TrypLE™ Express solution (Invitrogen, CA) for 5 mins. Released cells were resuspended in DM-F12+2% FBS medium, recovered by centrifugation, and counted using a hemocytometer. The released cells were seeded at 1000-10,000 cells/cm^2 on tissue culture polystyrene (TCPS) flasks and cultured in DM-F12+2% FBS+100 ng/ml activin-A+20 ng/ml WNT-3A+50 ng/ml of IGF-I+0.1 mM mercaptoethanol (Invitrogen, CA), non-essential amino acids (1×, NEAA from Invitrogen, CA)+/−10 μm ROCK inhibitor (Y-27632, Calbiochem, CA) under hypoxic conditions (approximately 3% O2) at 37° C. in a standard tissue culture incubator. The TCPS flaks were not coated with MATRIGEL or other extracellular matrix proteins. The media was changed daily. The first passage cells are referred to as P1. […] EXPRES cells derived using the ROCK inhibitor, Y27632 were designated as EXPRES 15.

[2] = system: Mouse Embryo Fibroblast (MEF); test: Cell cycle analysis of mitomycin treated feeder cells; format: cell-based
Protocol: MEF cells, derived from E13 to 13.5 mouse embryos, were purchased from Charles River. MEF cells were expanded in DMEM medium supplemented with 10% FBS (Hyclone), 2 mM glutamine, and 100 mM MEM nonessential amino acids. Sub-confluent MEF cell cultures were treated with 10 μg/ml mitomycin C (Sigma, St. Louis, Mo.) for 3 h to arrest cell division, then trypsinized and plated at 2×10^4/cm2 on 0.1% bovine gelatin-coated dishes. MEF cells from passage two through four were used as feeder layers. […] For cell cycle analysis, cells were stained with 7AAD, and analyzed on FACS Array.

EXPRES 03 cells = test: Proliferation and cell cycle analysis (BRDU incorporation, 7AAD); format: cell-based, human
Protocol: Methods: Cells were seeded at 5,000-10,000 cells/cm^2 in Cell Bind tissue culture flasks (Corning) and cultured for 2-4 days. EXPRES 03 cells were cultured either in growth medium containing 2% FBS in DMEM/F12 and Activin-A (100 ng/ml), wnt3a (10-20 ng/ml) and IGF (50 ng/ml). For comparative proliferation analysis, IGF was sometimes omitted from the growth factor cocktail. Cell proliferation was analyzed using the APC BRDU Flow kit according to the Manufacturer's recommendations (BD Biosciences, San Diego, Calif.). Briefly, cells were pulsed with BRDU for 1-2 hrs at the end of culture period, released using Tryple E Express and counted. Cells were fixed in BD Cytofix/Cytosperm Buffer, incubated for 30 min, followed by incubation with BD Cytoperm buffer for 10 minutes on ice. Cells were then treated with DNAse for 1 hr at 37° C. to expose incorporated BRDU, followed by staining with APC conjugated anti-BRDU antibody. For cell cycle analysis, cells were stained with 7AAD, and analyzed on FACS Array.

EXPRES cells = test: Population doubling time of EXPRES cells in growth media; format: cell-based, human; conditions: H9-derived EXPRES cells on TCPS, hypoxic; IGF-I at 50 ng/ml added to growth media (DMEM-F12+2% FBS+100 ng/ml activin-A+20 ng/ml WNT-3A)
Protocol: Cells from the human embryonic stem cell lines H1 and H9 various passages (Passage 30-54) were cultured under hypoxic conditions (approximately 3% 02) for at least three passages. The cells were cultured in MEF-CM supplemented with 8 ng/ml of bFGF and plated on MATRIGEL coated plates according to Example 1. The cells were exposed to the DE protocol outlined in Example 5. At days 3-6, the cultures were exposed to TrypLE™ Express solution (Invitrogen, CA) for 5 mins. Released cells were resuspended in DMEM-F12+2% FBS medium, recovered by centrifugation, and counted using a hemocytometer. The released cells were seeded at 1000-10,000 cells/cm^2 on tissue culture polystyrene (TCPS) treated flasks and cultured in DMEM-F12+2% FBS+100 ng/ml activin-A+20 ng/ml WNT-3A under hypoxic conditions (approximately 3% O2) at 37° C. in standard tissue culture incubator. The TCPS flaks were not coated with MATRIGEL or other extracellular matrix proteins. The media was changed daily. In some cultures, the media was further supplemented with 10-50 ng/ml of IGF-I (insulin growth factor-I from R&D Systems, MN) or 1×ITS (Insulin, transferrin, and selenium from Invitrogen, Ca). In some of the culture conditions the basal media (DM-F12+2% FBS) was further supplemented with 0.1 mM mercaptoethanol (Invitrogen, CA) and non-essential amino acids (1×, NEAA from Invitrogen, CA). […]

[3] = system: expanded cells derived from human embryonic stem cell line H9; test: Real-time PCR of DE and visceral endoderm markers in expanded cells; format: cell-based
Protocol: Real-time PCR amplification and quantitative analysis: Unless otherwise stated, all reagents were purchased from Applied Biosystems. Real-time PCR reactions were performed using the ABI PRISM® 7900 Sequence Detection System. TAQMAN® UNIVERSAL PCR MASTER MIX® (ABI, CA) was used with 20 ng of reverse transcribed RNA in a total reaction volume of 20 μl. Each cDNA sample was run in duplicate to correct for pipetting errors. Primers and FAM-labeled TAQMAN® probes were used at concentrations of 200 nM. The level of expression for each target gene was normalized using a human glyceraldehyde-3-phosphate dehydrogenase (GAPDH) endogenous control previously developed by Applied Biosystems. SOX-17 primers were designed using the PRIMERS program (ABI, CA) and were the following sequences: SOX-17: TGGCGCAGCAGATACCA, AGCGCCTTCCACGACTTG, and […]. After an initial incubation at 50° C. for 2 min followed by 95° C. for 10 min, samples were cycled 40 times in two stages—a denaturation step at 95° C. for 15 sec followed by an annealing/extension step at 60° C. for 1 min. Data analysis was carried out using GENEAMP®7000 Sequence Detection System software. For each primer/probe set, a Ct value was determined as the cycle number at which the fluorescence intensity reached a specific value in the middle of the exponential region of amplification. Relative gene expression levels were calculated using the comparative Ct method. Briefly, for each cDNA sample, the endogenous control Ct value was subtracted from the gene of interest Ct to give the delta Ct value (ΔCt). The normalized amount of target was calculated as 2-ΔCt, assuming amplification to be 100% efficiency. Final data were expressed relative to a calibrator sample.
Cultures derived from the parental human embryonic stem cell line H9 according to the methods described in Example 6 were passaged every 4-7 days. FIG. 5 depicts real-time PCR results for the expanded cells cultured in 2% FBS+DMEM-F12+100 ng/ml of activin-A+20 of WNT3A for three passages. […] There is a clear decrease in DE markers, such as SOX-17 and HNF-3 beta following each passage. […]

[4] = addition of 50 ng/ml IGF-I and withdrawal of Activin-A and WNT-3A

O=C1Nc2cc(Br)ccc2/C1=C1/Nc2ccccc2/C1=N\O [GSK-3B inhibitor IX]
CXCR4 positive cells (EXPRES 01 cells): approximately 57%
CXCR4 positive cells (EXPRES 02 cells): approximately 86%

C[C@@H](N)[C@H]1CC[C@H](C(=O)Nc2ccncc2)CC1 [Y-27632]
number of attached cells [1]: significantly larger number of attached cells

CO[C@@]12[C@H](COC(N)=O)C3=C(C(=O)C(C)=C(N)C3=O)N1C[C@@H]1N[C@@H]12 [mitomycin, mitomycin C]
cells in G2/M phase [2]: 64%

IGF-I: insulin growth factor-I from R&D Systems; recombinant human IGF-1
frequency of cells in S-phase, presence versus absence of IGF (EXPRES 03 cells; BRDU exposure for 1 hour or more): only marginal differences
number of cells grown in presence of IGF relative to absence of IGF (EXPRES 03 cells; IGF 50 ng/ml, after 3-4 days): 2-3 times
population doubling time (EXPRES cells): approximately 55 hrs
expression of DE markers along with OCT-4 [3, 4]: precipitous drop
expression of visceral endoderm markers, such as SOX-7 and AFP [3, 4]: increase

WNT3A
expression of DE markers ([3]; WNT3A added to growth media containing activin-A): significant boost
